Counter-ions that a name gives are not always drawn.
Molecular target: T1, rh beta tryptase (Homo sapiens, UniProt Q15661)
T1 construct: purchased Promega
Assay: tryptase inhibition test (cleavage of N-p-tosyl-Gly-Pro-Lys-para-nitroaniline, p-nitroaniline measured at 405 nm)
Format: biochemical
Settings: Tris HCl buffer pH 7.4 with calcium and heparin; substrate 0.6 mM; 5 min pre-incubation, 5 min incubation at 37° C.; enzyme activity 0.91 U/ml
Protocol: The compounds according to the invention are characterised by their tryptase-inhibiting activity. This ability to inhibit tryptase was investigated using the test described below. The measurement is carried out in Tris HCl buffer (100 mM), which additionally contains calcium (5 mM) and heparin (100 mg/ml), at pH 7.4. The standard used is rh beta tryptase which may be obtained commercially from Promega, for example. The substrate used is N-p-tosyl-Gly-Pro-Lys-para-nitroaniline in a concentration of 0.6 mM. The substrate is digested with tryptase to form p-nitroaniline which can be measured at 405 nm. Usually, an incubation period of 5 minutes and an incubation temperature of 37° C. are chosen. The enzyme activity used is 0.91 U/ml. The measurements are carried out in an Autoanalyser (CobasBio) made by Hofmann LaRoche. The potential inhibitory substances are used in concentrations of 10 μM in the screening, the inhibition of the tryptase being given in percent. The IC50 is determined at over 70% inhibition (concentration at which 50% of the enzyme activity is inhibited). After 5 minutes' pre-incubation of the potential inhibitory substances, the substrate is added to start the reaction, the formation of p-nitroaniline being taken as a measurement of the enzyme activity after 5 minutes, after testing the linearity.
The data obtained after the above test has been carried out (IC50 values) can be found in Table 3.

T1 sequence (Q15661 31-275): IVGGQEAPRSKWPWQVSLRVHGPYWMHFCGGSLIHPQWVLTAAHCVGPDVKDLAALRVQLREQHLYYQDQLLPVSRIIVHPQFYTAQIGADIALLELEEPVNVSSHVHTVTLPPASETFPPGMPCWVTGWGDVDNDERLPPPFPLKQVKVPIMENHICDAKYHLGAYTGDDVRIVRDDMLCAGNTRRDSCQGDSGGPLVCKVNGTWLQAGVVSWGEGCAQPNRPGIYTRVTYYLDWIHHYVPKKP

| Compound | IC50 |
| --- | --- |
| 1-Methyl-2-[2-(4-amidino- phenyl)-ethyl]-5-[N-(4′-(3″- hydroxypropyl)-piperazin-1-yl- carbonylmethyl)-naphth-2-yl- sulphonylamino]-benzimidazole [Example 51] | 35 nM |
| CCN(CC)CCN(c1ccc2c(c1)nc(CCc1ccc(C(=N)N)cc1)n2C)S(=O)(=O)c1ccccc1 [Example 2, N-{2-[2-(4-amidinophenyl)-ethyl]-1-methyl-benzimidazol-5-yl}-N-diethylaminoethyl-(benzenesulphonamide)-dihydrochloride] | 25 nM |
| CCOCCCn1c(CCc2ccc(C(=N)N)cc2)nc2cc(N(CCN(CC)CC)S(=O)(=O)c3ccccc3)ccc21 [Example 3, N-{2-[2-(4-amidinophenyl)-ethyl]-1-(3-ethoxy-propyl)-benzimidazol-5-yl}-N-diethylaminoethyl-(benzenesulphonamide)-dihydrochloride] | 132 nM |
| CN(C)c1ccc(CN(c2ccc3c(c2)nc(CCc2ccc(C(=N)N)cc2)n3C)S(=O)(=O)c2ccccc2)cc1 [Example 4, N-{2-[2-(4-amidinophenyl)-ethyl]-1-methyl-benzimidazol-5-yl}-N-(4-dimethylaminobenzyl)-(benzenesulphonamide)-dihydrochloride] | 123 nM |
| CCN(CC)CCN(c1ccc2c(c1)nc(CCc1ccc(CN)cc1)n2C)S(=O)(=O)c1ccccc1 [Example 5, N-{2-[2-(4-aminomethyl-phenyl)-ethyl]-1-methyl-benzimidazol-5-yl}-N-diethylaminoethyl-(benzenesulphonamide)-dihydrochloride] | 100 nM |
| CCCN(CCC)C1CCC(N(c2ccc3c(c2)nc(CCc2ccc(C(=N)N)cc2)n3C)S(=O)(=O)c2ccccc2)CC1 (centres unmarked) [Example 7, 1-methyl-2-[2-(4-amidino-phenyl)-ethyl]-5-[N-(4-dipropyl-amino-cyclohexanyl)-benzene-sulphonyl-amino]-benzimidazole] | 109 nM |
| CN1CCC(CN(c2ccc3c(c2)nc(CCc2ccc(C(=N)N)cc2)n3C)S(=O)(=O)c2ccccc2)C1 (centres unmarked) [Example 8, 1-methyl-2-[2-(4-amidino-phenyl)-ethyl]-5-[N-(1-methyl-pyrrolidin-3-yl-methyl)-benzene-sulphonyl-amino]-benzimidazole] | 89 nM |
| CN1CCCC1CN(c1ccc2c(c1)nc(CCc1ccc(C(=N)N)cc1)n2C)S(=O)(=O)c1ccccc1 (centres unmarked) [Example 9, 1-methyl-2-[2-(4-amidino-phenyl)-ethyl]-5-[N-(1-methyl-pyrrolidin-2-yl-methyl)-benzene-sulphonyl-amino]-benzimidazole] | 62 nM |
| Cn1c(CCc2ccc(C(=N)N)cc2)nc2cc(N(C3CCNCC3)S(=O)(=O)c3ccccc3)ccc21 [Example 11, 1-methyl-2-[2-(4-amidino-phenyl)-ethyl]-5-[N-(4-piperidinyl)-benzenesulphonyl-amino]-benzimidazole] | 90 nM |
| CN1CCC(N(c2ccc3c(c2)nc(CCc2ccc(C(=N)N)cc2)n3C)S(=O)(=O)c2ccccc2)CC1 [Example 12, 1-methyl-2-[2-(4-amidino-phenyl)-ethyl]-5-[N-(1-methyl-piperidin-4-yl)-benzene-sulphonylamino]-benzimidazole] | 179 nM |
| Cn1c(CCc2ccc(C(=N)N)cc2)nc2cc(N(C3CCN(Cc4ccccc4)CC3)S(=O)(=O)c3ccccc3)ccc21 [Example 13, 1-methyl-2-[2-(4-amidino-phenyl)-ethyl]-5-[N-(1-benzyl-piperidin-4-yl)-benzene-sulphonylamino]-benzimidazole] | 76 nM |
| Cn1c(CCc2ccc(C(=N)N)cc2)nc2cc(N(C3CCNC3)S(=O)(=O)c3ccccc3)ccc21 (centres unmarked) [Example 14, 1-methyl-2-[2-(4-amidino-phenyl)-ethyl]-5-[N-(3-pyrrolidinyl)-benzenesulphonyl-amino]-benzimidazole] | 82 nM |
| CCN(CC)CCN(c1ccc2c(c1)nc(CCc1ccc(C(=N)N)cc1)n2CCO)S(=O)(=O)c1ccccc1 [Example 16, 1-(2-hydroxyethyl)-2-[2-(4-amidinophenyl)-ethyl]-5-[N-(2-diethylaminoethyl)-benzene-sulphonylamino]-benzimidazole] | 121 nM |
| CCN(CC)CCN(c1ccc2c(c1)nc(CCc1ccc(C(=N)N)cc1)n2CCOC)S(=O)(=O)c1ccccc1 [Example 17, 1-(2-methoxyethyl)-2-[2-(4-amidinophenyl)-ethyl]-5-[N-(2-diethylaminoethyl)-benezene-sulphonylamino]-benzimidazole] | 62 nM |
| CCCn1c(CCc2ccc(C(=N)N)cc2)nc2cc(N(CCN(CC)CC)S(=O)(=O)c3ccccc3)ccc21 [Example 18, 1-n-propyl-2-[2-(4-amidino-phenyl)-ethyl]-5-[N-(2-diethyl-aminoethyl)-benzenesulphonyl-amino]-benzimidazole] | 292 nM |
| CCN(CC)CCN(c1ccc2c(c1)nc(CCc1ccc(C(=N)N)cc1)n2CCCO)S(=O)(=O)c1ccccc1 [Example 19, 1-(3-hydroxypropyl)-2-[2-(4-amidinophenyl)-ethyl]-5-[N-(2-diethylaminoethyl)-benzene-sulphonylamino]-benzimidazole] | 239 nM |
| CCN(CC)CCN(c1ccc2c(c1)nc(CCc1ccc(C(=N)N)cc1)n2CCc1ccccc1)S(=O)(=O)c1ccccc1 [Example 24, 1-(2-phenylethyl)-2-[2-(4-amidinophenyl)-ethyl]-5-[N-(2-diethylaminoethyl)-benzene-sulphonylamino]-benzimidazole] | 190 nM |
| CCN(CC)CCN(c1ccc2c(c1)nc(CCc1ccc(C(=N)N)cc1)n2CCCc1ccccc1)S(=O)(=O)c1ccccc1 [Example 25, 1-(3-phenylpropyl)-2-[2-(4-amidinophenyl)-ethyl]-5-[N-(2-diethylaminoethyl)-benzene-sulphonylamino]-benzimidazole] | 412 nM |
| CCN(CC)CCN(c1ccc2c(c1)nc(CCc1ccc(C(=N)N)cc1)n2CCOc1ccccc1OC)S(=O)(=O)c1ccccc1 [Example 26, 1-[2-(2-methoxyphenoxy)ethyl]-2-[2-(4-amidinophenyl)-ethyl]-5-[N-(2-diethylaminoethyl)-benzenesulphonylamino]-benzimidazole] | 74 nM |
| CCN(CC)CCN(c1ccc2c(c1)nc(CCc1ccc(C(=N)N)cc1)n2CC1CCCO1)S(=O)(=O)c1ccccc1 (centres unmarked) [Example 27, 1-(2-tetrahydrofurylmlethyl)-2-[2-(4-amidinophenyl)-ethyl]-5-[N-(2-diethylaminoethyl)-benzenesulphonylamino]-benzimidazole] | 273 nM |
| CCN(CC)CCN(c1ccc2c(c1)nc(CCc1ccc(C(=N)N)cc1)n2C)S(=O)(=O)c1cccc2ccccc12 [Example 28, 1-methyl-2-[2-(4-amidino-phenyl)-ethyl]-5-[N-(2-diethyl-aminoethyl)-naphth-1-yl-sulphonylamino]-benzimidazole] | 27 nM |
| Cn1c(CCc2ccc(C(=N)N)cc2)nc2cc(N(CCN3CCCCC3)S(=O)(=O)c3ccccc3)ccc21 [Example 33, 1-methyl-2-[2-(4-amidino-phenyl)-ethyl]-5-[N-(2-piperidin-1-ylethyl)-benzene-sulphonylamino]-benzimidazole] | 44 nM |
| Cn1c(CCc2ccc(C(=N)N)cc2)nc2cc(N(CCN3CCCC3)S(=O)(=O)c3ccccc3)ccc21 [Example 34, 1-methyl-2-[2-(4-amidino-phenyl)-ethyl]-5-[N-(2-pyrrolidin-1-ylethyl)-benzene-sulphonylamino]-benzimidazole] | 43 nM |
| CCN(CC)CCN(c1ccc2c(c1)nc(CCc1ccc(C(=N)N)cc1)n2C)S(=O)(=O)c1ccc2ccccc2c1 [Example 35, 1-methyl-2-[2-(4-amidino-phenyl)-ethyl]-5-[N-(2-diethylaminoethyl)-naphth-2-yl-sulphonylamino]-benzimidazole] | 6.6 nM |
| CCN(CC)CCN(c1ccc2c(c1)nc(CCc1ccc(C(=N)N)cc1)n2C)S(=O)(=O)c1csc2ccccc12 [Example 43, 1-Methyl-2-[2-(4-amidino-phenyl)-ethyl]-5-[N-(2-diethyl-aminoethyl)-benzo[b]thien-3-yl-sulphonylamino]-benzimidazole] | 25 nM |
| Cn1c(CCc2ccc(C(=N)N)cc2)nc2cc(N(Cc3ccccn3)S(=O)(=O)c3ccc4ccccc4c3)ccc21 [Example 44, 1-Methyl-2-[2-(4-amidino-phenyl)-ethyl]-5-[N-(pyrid-2-yl-methyl)-naphth-2-ylsulphonyl-amino]-benzimidazole;] | 22 nM |
| Cn1c(CCc2ccc(C(=N)N)cc2)nc2cc(N(Cc3cccnc3)S(=O)(=O)c3ccc4ccccc4c3)ccc21 [Example 45, 1-Methyl-2-[2-(4-amidino-phenyl)-ethyl]-5-[N-(pyrid-3-yl-methyl)-naphth-2-ylsulphonyl-amino]-benzimidazole;] | 22 nM |
| Cn1c(CCc2ccc(C(=N)N)cc2)nc2cc(N(CC(=O)N3CCC(Cc4ccccc4)CC3)S(=O)(=O)c3ccc4ccccc4c3)ccc21 [Example 46, 1-Methyl-2-[2-(4-amidino-phenyl)-ethyl]-5-[N-(4′-benzyl-piperid-1-yl-carbonylmethyl)-naphth-2-ylsulphonylamino]-benzimidazole] | 30 nM |
| Cn1c(CCc2ccc(C(=N)N)cc2)nc2cc(N(CCN3CCOCC3)S(=O)(=O)c3ccc4ccccc4c3)ccc21 [Example 47, 1-Methyl-2-[2-(4-amidino-phenyl)-ethyl]-5-[N-(2-morpholinoethyl)-naphth-2-yl-sulphonylamino]-benzimidazole] | 70.3 nM |

Reference: patent publication US6365584B1, “Arylysulphonamide-substituted benzimidazoles having tryptase-inhibiting activity” (Boehringer Ingelheim Pharma KG, priority 1999, dated 2002)
